Measurements as given in the supplement of paper PMC10307832.

What was measured:
Experiment in all cases: relative viability (nuclei count vs DMSO), 5 days (fraction); higher = more cells survive
Tipifarnib + Tozasertib = compound: Cn1cncc1[C@@](N)(c1ccc(Cl)cc1)c1ccc2c(c1)c(-c1cccc(Cl)c1)cc(=O)n2C [Tipifarnib] + Cc1cc(Nc2cc(N3CCN(C)CC3)nc(Sc3ccc(NC(=O)C4CC4)cc3)n2)n[nH]1 [Tozasertib] (partner 0.1 µM)
In short: (§1)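 Medians of duplicate plates are given as relative viability. That measure is the nuclei count in treated wells divided by the count in vehicle wells. Counts were taken on 4× images of lung cancer cell lines in 1536-well plates, 5 days after pin-tool dosing the day after seeding with one drug alone or a fixed anchor-drug dose plus five library-drug doses (not always all listed) in √10 steps.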

Tipifarnib + Foretinib = compound: Cn1cncc1[C@@](N)(c1ccc(Cl)cc1)c1ccc2c(c1)c(-c1cccc(Cl)c1)cc(=O)n2C [Tipifarnib] + COc1cc2c(Oc3ccc(NC(=O)C4(C(=O)Nc5ccc(F)cc5)CC4)cc3F)ccnc2cc1OCCCN1CCOCC1 [Foretinib] (partner 0.25 µM)
In short: as §1

Tipifarnib + Luminespib = compound: Cn1cncc1[C@@](N)(c1ccc(Cl)cc1)c1ccc2c(c1)c(-c1cccc(Cl)c1)cc(=O)n2C [Tipifarnib] + CCNC(=O)c1noc(-c2cc(C(C)C)c(O)cc2O)c1-c1ccc(CN2CCOCC2)cc1 [Luminespib] (partner 0.01 µM)
In short: as §1

Tipifarnib + AZD7762 = compound: Cn1cncc1[C@@](N)(c1ccc(Cl)cc1)c1ccc2c(c1)c(-c1cccc(Cl)c1)cc(=O)n2C [Tipifarnib] + NC(=O)Nc1cc(-c2cccc(F)c2)sc1C(=O)N[C@H]1CCCNC1 [AZD7762] (partner 0.2 µM)
In short: as §1

Row | Cell Line | relative viability (Tipifarnib + Tozasertib; first compound 0.01 µM) | relative viability (Tipifarnib + Tozasertib; first compound 0.03162 µM) | relative viability (Tipifarnib + Tozasertib; first compound 0.1 µM) | relative viability (Tipifarnib + Tozasertib; first compound 0.3162 µM) | relative viability (Tipifarnib + Tozasertib; first compound 1 µM) | relative viability (Tipifarnib + Foretinib; first compound 0.01 µM) | relative viability (Tipifarnib + Foretinib; first compound 0.03162 µM) | relative viability (Tipifarnib + Foretinib; first compound 0.1 µM) | relative viability (Tipifarnib + Foretinib; first compound 0.3162 µM) | relative viability (Tipifarnib + Foretinib; first compound 1 µM) | relative viability (Tipifarnib + Luminespib; first compound 0.01 µM) | relative viability (Tipifarnib + Luminespib; first compound 0.03162 µM) | relative viability (Tipifarnib + Luminespib; first compound 0.1 µM) | relative viability (Tipifarnib + Luminespib; first compound 0.3162 µM) | relative viability (Tipifarnib + Luminespib; first compound 1 µM) | relative viability (Tipifarnib + AZD7762; first compound 0.01 µM) | relative viability (Tipifarnib + AZD7762; first compound 0.03162 µM) | relative viability (Tipifarnib + AZD7762; first compound 0.1 µM) | relative viability (Tipifarnib + AZD7762; first compound 0.3162 µM) | relative viability (Tipifarnib + AZD7762; first compound 1 µM)
1 | NCI-H2170 | 0.839 | 0.718 | 0.456 | 0.501 | 0.47 | 1.03 | 1.06 | 1.01 | 0.99 | 0.896 | 0.406 | 0.555 | 0.619 | 0.282 | 0.691 | 0.98 | 0.885 | 0.701 | 0.644 | 0.506
2 | NCI-H2342 | 0.472 | 0.476 | 0.43 | 0.371 | 0.383 | 1.06 | 0.984 | 0.884 | 0.824 | 0.771 | 0.689 | 0.669 | 0.635 | 0.569 | 0.51 | 0.509 | 0.506 | 0.36 | 0.449 | 0.39
3 | NCI-H2347 | 0.516 | 0.402 | 0.431 | 0.382 | 0.461 | 1.34 | 0.76 | 0.723 | 0.756 | 0.528 | 0.671 | 0.298 | 0.401 | 0.386 | 0.28 | 0.834 | 0.721 | 0.665 | 0.505 | 0.61
4 | NCI-H2405 | 0.708 | 0.666 | 0.626 | 0.544 | 0.532 | 1.06 | 1.03 | 1.03 | 0.993 | 0.923 | 0.71 | 0.584 | 0.525 | 0.606 | 0.527 | 0.759 | 0.758 | 0.688 | 0.523 | 0.589
5 | NCI-H3122 | 0.372 | 0.27 | 0.277 | 0.196 | 0.183 | 0.957 | 0.796 | 0.744 | 0.693 | 0.544 | 0.0874 | 0.0613 | 0.0958 | 0.0893 | 0.0812 | 0.967 | 0.971 | 0.714 | 0.556 | 0.348
6 | PC-3 [JPC-3] | 0.827 | 0.827 | 0.722 | 0.701 | 0.535 | 1.06 | 1.02 | 0.955 | 0.749 | 0.6 | 0.74 | 0.694 | 0.66 | 0.458 | 0.409 | 0.805 | 0.714 | 0.532 | 0.519 | 0.457
7 | PC-14 | 0.397 | 0.496 | 0.172 | 0.165 | 0.155 | 0.954 | 1.01 | 0.912 | 0.602 | 0.289 | 0.221 | 0.2 | 0.149 | 0.132 | 0.131 | 0.322 | 0.228 | 0.227 | 0.136 | 0.16
8 | RERF-LC-KJ | 0.623 | 0.435 | 0.454 | 0.325 | 0.334 | 0.917 | 0.965 | 0.799 | 0.773 | 0.393 | 1.2 | 0.924 | 1.07 | 0.605 | 0.654 | 1.02 | 1.22 | 0.975 | 0.656 | 0.243
9 | SW 900 | 0.335 | 0.261 | 0.289 | 0.31 | 0.273 | 0.716 | 0.481 | 0.381 | 0.39 | 0.412 | 0.188 | 0.188 | 0.196 | 0.167 | 0.185 | 0.464 | 0.372 | 0.331 | 0.292 | 0.259
